Marks after values point to notes of the source that are not given here.
Key:
rats = assay: Acute toxicity, single intragastric administration in immature rats; type: in vivo; conditions: for Dead/total number: rats 30-35 days
Experimental: (§1) Tables 2, 2.1 and 2.2 present the results of acute toxicity studies of the Compounds with active substance content in at least white outbred male mice (body weight 18-24 g) and white outbred rats 30-35 days of age, of both sexes with a single dose. Calculation of toxic doses was made using the Wilcoxon and Litchfield method. Observations were made over 24 hours and 14 days after a single dose.
(§2) LD50 in rat pups after intragastric administration was not found. Intragastric administration to rat pups of doses of more than 1000 mg/kg is technically impossible due to the small volume of the stomach (Table 2.2).

[1] = Plasma electrolyte balance at course administration; type: in vivo; conditions: rats
[2] = normal conditions and high physical activity; cited from earlier work
mice [3] = assay: Hyperkinesis induced by 5-oxytryptophan (negative symptoms of schizophrenia); type: in vivo; conditions: for Number of shakings: mice, 5-oxytryptophan 300 mg/kg i.p.
Experimental: Studies have been conducted on white outbred male mice (18-24 g), in comparison with the olanzapine (Zyprexa) with intraperitoneal injection.
Phenotropil in all studied doses reduced hyperkinesia (head shakings): at doses of 100 mg/kg—by 88%, at 200 mg/kg—by 87%, and at 300 mg/kg—by 89%. […] Effect of Phenotropil on serotonergic system requires more detailed testing and studies of lower doses, since there is no reason to exclude neuroleptic activity in this test. Preventive or proactive (protective) use of lower doses may be appropriate also in dopaminergic pathology.

mice [4] = assay: Cross maze exploratory behavior, HEF and LEF mice; type: in vivo; conditions: i.p. once a day 5 days, Compounds 1 and 4 100 mg/kg, Piracetam 200 mg/kg
mice [5] = assay: Hot plate test (pain sensitivity); type: in vivo; conditions: for Latent period (hot plate): mice
Source text: The analgesic effect is present at all studied doses and increases with increasing dose.

patients [6] = assay: Amenorrhea in patients on neuroleptic therapy; type: in vivo, human; conditions: tablets 100 or 200 mg per day, 3 months
Experimental: Investigation of the effect of Phenotropil in amenorrhea and functional dysmenorrhea was conducted on groups of patients aged 14-27 years. The first group (20-27 years) diagnosed with schizophrenia, was on the maintenance neuroleptic therapy and had menstrual cycle irregularities in the form of amenorrhea (for more than 6 months). Of those, 4 had amenorrhea of not established nature, observed also prior to the pronounced primary manifestation of mental disorder, 6 patients had amenorrhea that developed during treatment with neuroleptics. Phenotropil, tablets was administered in doses of 100 mg and 200 mg per day as part of a complex antipsychotic therapy as a corrector of psychogenic side effects of neuroleptics. The dose was selected based on the individual and clinical features of the patients. The duration of Phenotropil therapy was 3 months. Two groups (14-18 years) with functional dysmenorrhea and manifestations of pronounced spastic symptoms were studied. Duration of the Phenotropil monotherapy (50 and 100 mg per day) was one month followed by administration of the drug at one-week courses as a preventive agent. Patients with functional dysmenorrhea were investigated for cAMP level in comparison with the norm control group. The cAMP level was determined using the standard kits, by the method based on the competition with the labeled cyclic 3′,5-adenosine monophosphate in the level of binding with […].

mice [7] = assay: Average life duration (ALD) of mice; type: in vivo
cortisol = assay: Plasma cortisol level (Tsf-activity) in August and Wistar rats; type: in vivo; conditions: for Tsf-activity by cortisol at 3 hours vs control / plasma cortisol at 60 min / Tsf-activity by cortisol at 60 min vs control: i.p. 1.0-750 mg/kg, averaged
mice [8] = assay: Acute toxicity, single intraperitoneal injection in male mice; type: in vivo; conditions: male mice 18-24 g; single i.p.
Experimental: as §1, §2

patients [9] = assay: Acneiform rash, topical solution; type: in vivo, human; conditions: for Efficacy expressed in % (acne rush during hormonal alteration): humans, topically 0.1% aqueous solution, baseline control = 100
Experimental: A study of effect of Phenotropil on the scalp and face skin in seborrhea oleosa and on the scalp skin in dry seborrhea, as well in the mixed form, was performed on mixed groups of both sexes (15-37 years). The 0.1% Phenotropil solution was used. In the group with mixed form, additional Phenotropil tablets were administered at a dose of 100 mg per day (in the morning). The baseline examinations were used as control. The prepared samples were rubbed into the scalp once a day 1 or 2 hours before bedtime. In the case of acneiform rash, the skin was wiped in the morning and evening by cotton pads soaked (as usual lotion) by 0.1% aqueous Phenotropil. Washing the hair using shampoo was not recommended. A neutral baby soap “Alice” by OAO Svoboda and the rinse prepared with 25 ml of lemon juice and 100 mg Phenotropil powder per 1000.0 ml water were used. Studies were conducted for 28 calendar days with monitoring examinations every 14 days. In the dry seborrhea group, three patients withdrew from the study after two weeks due to reluctance to undergo further examination; they found it difficult to comply with the regime of the detergents use. The skin state was assessed by a 4-point system, where 0—absent, 1—the effect intensity less than 50.0%, 2—the effect intensity more than 50.0%, 3—the effect intensity more than 80% but less than 100.0% of the cases.

[10] = 4-week administration 300 mg/kg

NC(=O)CN1CC(c2ccccc2)CC1=O (racemic) [Compound 1, (RS)-2-(2-oxo-4-phenylpyrrolidine-1-yl)acetamide]
Dead/total number (rats; single intragastric 800 mg/kg): 0/10 | Dead/total number (rats; single intragastric 1000 mg/kg): 0/10 | % of dead rat pups (rats; single intragastric 800 mg/kg): 0% | % of dead rat pups (rats; single intragastric 1000 mg/kg): 0% | serum Ca ([1]; 4-week administration 50 mg/kg): 4.21 ± 0.23 mEq/l | serum K ([1]; 4-week administration 50 mg/kg): 3.15 ± 0.15 mEq/l | serum Na ([1]; 4-week administration 50 mg/kg): 127.3 ± 2.71 mEq/l | serum Ca [1, 10]: 4.69 ± 0.24 mEq/l | serum K [1, 10]: 3.44 ± 0.20 mEq/l | serum Na [1, 10]: 125.7 ± 3.43 mEq/l | time of excretion from the body [2]: 72 h | reduction of hyperkinesia (head shakings) (mice [3]; 100 mg/kg): 88% | reduction of hyperkinesia (head shakings) (mice [3]; 200 mg/kg): 87% | reduction of hyperkinesia (head shakings) (mice [3]; 300 mg/kg): 89% | Number of shakings (mice [3]; 100 mg/kg): 1.4 ± 0.5 | Number of shakings (mice [3]; 200 mg/kg): 1.5 ± 0.8 | Number of shakings (mice [3]; 300 mg/kg): 1.2 ± 0.5 | Kt (trigger transmission coefficient) (mice [4]; HEF mice): 3.3 ± 0.3 | Number of compartment explorations (mice [4]; HEF mice): 4.3 ± 0.4 // | Number of surveillances (mice [4]; HEF mice): 1.3 ± 0.2 | Kt (trigger transmission coefficient) (mice [4]; LEF mice): 3.1 ± 0.35 | Number of compartment explorations (mice [4]; LEF mice): 5.0 ± 0.5 // | Number of surveillances (mice [4]; LEF mice): 1.6 ± 0.2 | Kt (trigger transmission coefficient) (mice [4]; population as a whole): 3.2 ± 0.45 | Number of compartment explorations (mice [4]; population as a whole): 4.5 ± 0.7 // | Number of surveillances (mice [4]; population as a whole): 1.4 ± 0.2 | reduction of pain sensitivity (mice [5]; 50 mg/kg, 30 minutes): 14.3% | reduction of pain sensitivity (mice [5]; 50 mg/kg, 60 minutes): 8.3% | reduction of pain sensitivity (mice [5]; 50 mg/kg, 120 minutes): 10.8% | reduction of pain sensitivity (mice [5]; 100.0 mg/kg, 30 minutes): 12.4% | reduction of pain sensitivity (mice [5]; 100.0 mg/kg, 60 minutes): 12.5% | reduction of pain sensitivity (mice [5]; 100.0 mg/kg, 120 minutes): 31.5% | reduction of pain sensitivity (mice [5]; 300.0 mg/kg, 30 minutes): 71.4% | reduction of pain sensitivity (mice [5]; 300.0 mg/kg, 60 minutes): 61.5% | Latent period (hot plate) (mice [5]; 50.0 mg/kg i.p., 30 min): 12.0 ± 1.1 min | Latent period (hot plate) (mice [5]; 50.0 mg/kg i.p., 60 min): 11.7 ± 0.7 min | Latent period (hot plate) (mice [5]; 50.0 mg/kg i.p., 120 min): 12.3 ± 0.8 min | Latent period (hot plate) (mice [5]; 100.0 mg/kg i.p., 30 min): 11.8 ± 0.7^ min. | Latent period (hot plate) (mice [5]; 100.0 mg/kg i.p., 60 min): 13.5 ± 1.4 min | Latent period (hot plate) (mice [5]; 100.0 mg/kg i.p., 120 min): 14.6 ± 1.4 min | Latent period (hot plate) (mice [5]; 300.0 mg/kg i.p., 30 min): 18.0 ± 1.0 min | Latent period (hot plate) (mice [5]; 300.0 mg/kg i.p., 60 min): 18.2 ± 0.8 min | Latent period (hot plate) (mice [5]; 300.0 mg/kg i.p., 120 min): 22.2 ± 1.0 min | patients restored, amenorrhea of unknown nature (patients [6]): 30.0% | patients restored, amenorrhea on antipsychotic therapy (patients [6]): 40.0% | patients with restored menstruations and menstrual cycle (patients [6]; n=10): 70% | ALD increase vs placebo-treated control (mice [7]; 50 mg/kg): 15.3% | ALD increase vs placebo-treated control (mice [7]; 100 mg/kg): 29.3% | ALD increase vs placebo-treated control (mice [7]; 200 mg/kg): 12.5% | ALD increase vs placebo-treated control (mice [7]; 300 mg/kg): 19.6% | increase in life duration (mice [7]; doses below 50.0 mg/kg): 8.0-10.0% | Tsf-activity by cortisol at 3 hours vs control (cortisol; August rats): +6.8% | plasma cortisol at 60 min (cortisol; August rats): 45.6 ± 4.1 nmol/L | Tsf-activity by cortisol at 60 min vs control (cortisol; August rats, listed as (RS)-2-(2-oxo-4-phenylpyrrolidin-1-yl)acetamide): +14.1% | Tsf-activity by cortisol at 60 min vs control (cortisol; August rats, listed as Phenotropil): +14.1* % | modulation factor change compared to the control (cortisol; August rats, single dose): −11.5% | Tsf-activity by cortisol at 3 hours vs control (cortisol; Wistar rats): −7.6% | plasma cortisol at 60 min (cortisol; Wistar rats): 50.9 ± 4.4 nmol/L | Tsf-activity by cortisol at 60 min vs control (cortisol; Wistar rats, listed as (RS)-2-(2-oxo-4-phenylpyrrolidin-1-yl)acetamide): +2.0% | biologically active dose (reliable effect on plasma cortisol), starting from (cortisol; rats, i.p., range tested 0.5-750.0 mg/kg): ≥ 1.0 mg/kg | LD50 (mice [8]): 1042 (982.9-1102.0) mg/kg | effect on acne rash (patients [9]; 0.1% solution, one month): 79-84% | Efficacy expressed in % (acne rush during hormonal alteration) (patients [9]; dry skin): −84 * % | Efficacy expressed in % (acne rush during hormonal alteration) (patients [9]; oily skin): −79 * %

Reference: US20140315972A1, “RS)-2-(2-oxo-4-phenylpyrrolidin-1-yl)acetamide compound having modulatory activity with a commensurate effect, pharmaceutical substance (variants) and its application, composition (variants) thereof” (priority 2011, published 2014)
